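Test compounds were applied to cells in 96-well plates for 48 hours at 5 doses. Abbreviation: GI50, concentration required for 50% inhibition of growth. Definition used: TGI = concentration required for complete inhibition of growth.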
Tests used:
Test in all cases: NCI anticancer screen, dose series, 48 h
[1] = test system: HS 578T breast
[2] = test system: A549 NSCLC
[3] = test system: UACC-62 melanoma
[4] = test system: CCRF-CEM leukemia
[5] = test system: OVCAR-5 ovarian
[6] = test system: HT29 colon
[7] = test system: MDA-MB-435
[8] = test system: SN12C renal
[9] = test system: MOLT-4 leukemia
[10] = test system: PC-3 prostate
[11] = test system: RXF 393 renal

SMILES	TGI [1] [µM]	TGI [2] [µM]	TGI [3] [µM]	TGI [4] [µM]	TGI [5] [µM]	TGI [6] [µM]	TGI [7] [µM]	TGI [8] [µM]	TGI [9] [µM]	TGI [10] [µM]	TGI [11] [µM]	GI50 [1] [µM]	GI50 [4] [µM]	GI50 [7] [µM]	GI50 [8] [µM]	GI50 [9] [µM]	GI50 [10] [µM]
O=C1/C(=C/c2cccc([N+](=O)[O-])c2)CCCc2ccccc21	25.9	48	21.6	10.5	27.6	24	21.4	33.1	34	23							
O=C1/C(=C/c2cccc([N+](=O)[O-])c2)COc2ccccc21		> 100	3.19		> 100	6.85			6.62		12.8						
CC1CN=C(NCc2ccccc2)S1 (stereo not drawn)	> 100		> 100	> 100	> 100	> 100	> 100	> 100	> 100		> 100						
CCN(CC)CCCCC1CCN(CC(=O)N2c3ccccc3NC(=O)c3ccccc32)CC1		> 100	> 100	> 100		> 100		> 100	> 100								
CC(=O)Nc1ccc(-c2nnc(SCC(=O)Nc3ccccc3Cl)o2)cc1		> 100		> 100	> 100	> 100		> 100	> 100		> 100						
COc1cc(/C=C2\CCCC3=C2NC(N)=NC3c2cc(OC)c(OC)c(OC)c2)cc(OC)c1OC (stereo not drawn)	7.62			7.31			> 100	> 100	5.83	> 100		0.554	0.419	0.422	1.62	1.69	1.93
CCOc1ccc(NCC(=O)N2CC(=O)Nc3ccccc32)cc1		> 100	> 100	> 100	> 100	> 100		> 100	> 100		> 100						
COc1cc(C2c3cccc4cccc(c34)C3CCC(=O)N32)cc(O)c1O (stereo not drawn)		> 50	> 50	31.4	> 50	> 50	> 50	> 50	41.6	> 50	> 50						
Oc1ccccc1C=Nc1ccc(Oc2ccc(Cl)cc2)c(Cl)c1	52.5	58.7	49.6	54.3	79.5	40.1	> 100	41.4	> 100	53.6							
CN(C)c1ccc(C2CC(=O)CC(c3ccc(N(C)C)cc3)C23C(=O)NC(=O)NC3=O)cc1 (stereo not drawn)			> 25	> 25	> 25	> 25	> 25	> 25	> 25	> 25	> 25						
Fc1ccc(C(OCCN2CCC3CCC(C2)N3CCCc2ccccc2)c2ccc(F)cc2)cc1 (stereo not drawn)	19.7	19.4	18.2	11.3	20.3	13.7	7.46	12.7	7.86	11.4							
CC(=O)NNC=N/C(C#N)=C(\N)C#N	> 100	> 100	> 100	> 100	> 100	> 100	> 100	> 100	> 100	> 100							
Cc1ccc(S(=O)(=O)N/N=C2\C(=O)C3CC2C(Cl)C3Cl)cc1 (stereo not drawn)		> 100	> 100	> 100	> 100	> 100		> 100	> 100								
Cc1ccc(S(=O)(=O)N(c2ccccc2F)C2CCCCC2O)cc1 (stereo not drawn)	> 100	> 100	> 100	> 100	> 100	> 100	48.5	> 100		> 100							
O=C(O)Cc1cc(=O)oc2cc(O)c(Cl)cc12		> 100	> 100	> 100	> 100	> 100		> 100	> 100								
CSc1nc(C)cc(Nc2ccc(O)c(CN3CCCCC3)c2)n1	> 100	> 100	> 100		> 100	60.1	> 100	> 100	> 100		> 100						
CC1=NC(=Cc2ccc(Cl)cc2)C(=O)N1n1c(-c2ccccc2)nc2ccccc2c1=O	57.3	> 100	> 100	> 100		> 100	> 100	> 100	> 100	> 100							
